Measured values taken from patent publication US20120010178A1, “METHODS AND COMPOUNDS FOR TREATMENT OF NEURODEGENERATIVE DISORDERS” (PRESIDENT AND FELLOWS OF HARVARD COLLEGE, priority 2008, published 2012).
Entries after “also recorded” stand apart in the source; their conditions may differ.

Legend:
PC12 cells = settings: cited from earlier work
[1] = tested on: ES-cell derived Motor Neurons with SMN knockdown; assay: Motor neuron survival assay after SMN knockdown (shRNA lentivirus); assay type: cell-based, mouse; settings: for surviving motor neurons compared to DMSO: 1.25 and 2.5 uM
Source text: To test for survival, motor neurons were infected with three lentiviral constructs acquired from Open Biosystems (pGIPZ): a non-silencing (NS) shRNA and two with unique shRNA sequences directed against the Smn transcript. […] Quantification of SMN knockdown were made in 3T3 cells (FIGS. 39a-39b) and in motor neurons by sorting ES cell derived motor neurons (cherry positive) infected with the pGIPZ lentiviruses (GFP positive cells) by FACS and quantifying the amount of SMN by Western blot.
Effect of reduced SMN levels on motor neuron survival was investigated next. Motor neurons were plated and infected with the various lentiviral constructs. […] To test the effects of SMN increasing compounds, we added them to motor neurons two days after lentiviral infection. Over the course of the subsequent three days, we counted live cherry expressing motor neurons on a daily basis.
Mouse ES-cells expressing cherry fluorescent protein (CFP) under control of a Hb9 promoter, a motor neuron specific transcription factor, were used to differentiate motor neurons as described in Example 31. Motor neurons were infected with the three constructs that were acquired from Open Biosystems (pGIPZ): a non-silencing (NS) shRNA and two constructs with unique shRNA sequences directed against the Smn transcript. […] First we performed motor neuron survival assays to test whether reduced levels of SMN will affect viability of these motor neurons. We differentiated mES cells with Hb9-Chemy Fluorescent Protein (Hb9-CFP) in to motor neurons expressing CFP, that later we dissociated and plated on DIV0. Cells were infected with the NS pGIPZ virus, SMN#1 pGIPZ virus, SMN#2 pGIPZ virus or no virus on DIV 1. The percentage of surviving motor neuron was normalized to the uninfected control culture. […] The percentage of surviving motor neuron was normalized to the culture infected with control non-targeting shRNA.

SMN [2] = assay: High-content fibroblast screen for compounds that modulate SMN level; settings: human fibroblasts, 2-3 days with compound;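 further: Anti-SMN immunostaining with confocal imaging of nuclear and cytoplasmic SMN and gem counts, tested at 0.1, 1 and 10 uM, fold change relative to negative control wells on each plate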
Method: Human fibroblasts were incubated for 2-3 days with compounds from annotated collections. Cells were fixed and stained with an anti-SMN antibody. Confocal imaging was used to quantify SMN fluorescence in nucleus and cytoplasm and count Gems. Data were collected and subsequently analyzed by clustering compounds by suspected mechanism of action and chemical structure.
Following optimization of assay conditions on day 0, total of 500 human fibroblasts (GM09677 line) per well were seeded in 384-well plates, on day 3 they were treated with compounds (robot CyBio) from the annotated collections and on the 5 day plates were fixed and stained (robot MAPD) with an anti-SMN antibody and secondary antibody conjugated with 448 fluorophore (FIG. 19a). Compounds from the libraries were added in duplicate at three final concentrations of 10, 1 and 0.1 uM.
SMN detection was done on the automated confocal microscope Opera PerkinElmer with separate fluorescent exposures to 488 nM laser for and a UV light source to detect nuclei stained with Hoechst 33258 with a 20× objective.
After scanning on the Opera, an XML file extraction workflow, designed with Inforsense KDE, was used to assemble the data from multiple replicate plates of each HCS experiment including the quantitative parameters described above and chemical identities, chemical concentrations and indications of which wells were used for positive and negative controls. […] The fold-induction of SMN intensity values for each well treated with a library chemical were normalized to the SMN average intensity in multiple negative control wells per plate.
Since it is not known which form of SMN increase is the most essential, hits that scored in a duplicate at least in two different parameters greater than 1.3 fold at any of the three concentrations were selected (FIG. 19d). […] Further, 220 compounds were screened in the absence of anti-SMN primary antibody with the same assay conditions, to filter out the fluorescent compounds.

SMN [3] = assay: SMN levels in human motor neurons derived from patient iPS cells; assay type: cell-based; settings: two days after treatment
Method: GFP expressing motor neurons were derived from an […] patient iPS cells as described below. After growing for approximately 1 week, motor neurons were treated with allsterpaullone. Two days after treatment with allsterpaullone, cells were fixed and stained with SMN antibody or GFP antibody. […] Induced pluripotent stem cells were generated from an SMA patient fibroblast line from Coriell (GM09677) and differentiated into motor neurons according to methods adapted from Dimos, J. T., et. al. Science (2008) 321, 1218-122, Epub Jul. 31, 2008).

motor neurons = assay: Motor neuron survival (mouse motor neurons, compound treatment); assay type: cell-based
Method: Mouse motor neurons were treated with […] inhibitors. The levels of both cytoplasmic and nuclear SMN were detected and quantified using the method described in Example 2. The results shown in FIG. 14b indicate that […] inhibitors increase motor neuron survival.
Another way of assessing motor neuron survival is by withdrawing the neurotrophic factors from the media. Briefly, motor neurons are grown in media containing neurotrophic factors. The neurotrophic factors are then withdrawn from the growth media, e.g., cells transferred to media having no neurotrophic factors or neurotrophic factor containing media exchanged with neurotrophic factors lacking media. The compound of interest is added and motor neurons are counted on a daily basis.

[4] = tested on: kinase phosphorylation sites (Akt, RSK1, p38, GSKa/b, Erk1/2); assay: Phospho-kinase antibody array of PDGF treated fibroblasts; assay type: cell-based, human; settings: 50 ng/ml, 30 min
Method: Although there is much more known about growth factor specificity and downstream pathways that they activate, whether PDGF effect on SMN was mediated through the binding to the PDGFR was tested next. The SMN-increasing effects of PDGF were blocked by DMPQ and […], two small molecules inhibitors of the PDGF receptor (FIG. 21a). In addition PDGF neutralizing antibody titration were performed in the cells incubated with 20 ng/ml platelet-derived PDGF. Depending on the antibody concentration, gradient of SMN level decrease reaching 40% was observed (FIG. 21b). Moreover, as might be predicted, since there are appreciable levels of PDGF in the media serum in which the fibroblasts are normally maintained, simply adding PDGFR inhibitors DMPQ and AG-1296 to the media decreases the “basal” level of SMN in these cells down to 15-20%, (FIG. 22). Same effect was reproduced by adding PDGF neutralizing antibody to the media, confirming that PDGF can be a physiologically relevant regulator of SMN levels (FIG. 21c). […]
Cellular lysates from fibroblasts GM09677 treated with 50 ng/ml of PDGF-BB for 30 minutes and untreated control fibroblasts were collected and hybridized with the phosphor-kinase array membranes accordingly to the manufacture protocol (R&D Systems). […] Levels of phosphorylated protein were detected by measurement on the X-ray film (Kodak).

| Molecule | protection from EGTA induced death (PC12 cells) | survival of motor neurons after SMN knockdown (in words) ([1]; 1.25, 2.5 or 5 uM) | surviving motor neurons compared to DMSO ([1]; by the second day) | surviving motor neurons compared to DMSO ([1]; by the third day) | SMN level in fibroblast screen (increase or decrease) (SMN [2]) | SMN levels in human iPS derived motor neurons (in words) (SMN [3]) | motor neuron survival (in words) (motor neurons) | effect on Erk1 and 2 kinase phosphorylation [4] | kinases phosphorylated upon stimulation [4] |
| --- | --- | --- | --- | --- | --- | --- | --- | --- | --- |
| O=C1Cc2c([nH]c3ccc([N+](=O)[O-])cc23)-c2ccccc2N1 [Alsterpaullone] | able to protect PC12 cells from EGTA induced death | able to rescue the survival; also recorded: rescues the survival of SMN-KD Motor Neurons up to control level | twice the amount of surviving cells | three fold difference | SMN is increase | Increased SMN levels |  |  |  |
| PDGF |  |  |  |  |  |  | no effect | little effect | phosphorylation of Akt, RSK1, p38 and GSKa/b |
